# Measured values taken from article PMC6222422, “Synthesis and Biological Evaluation of Novel Indole-Derived Thioureas” (Molecules : A Journal of Synthetic Chemistry and Natural …, 2018).
# Columns and labels:
# S. epidermidis (MRSE) = experiment: MIC against hospital strains; details: Staphylococcus epidermidis
# M. luteus ATCC 10240 [1] = experiment: disc diffusion method; type: cell-based, Micrococcus luteus; details: 5 µg/9 mm disc
# S. aureus ATCC 29213 [2] = experiment: MIC, twofold serial agar dilution; type: cell-based; details: Staphylococcus aureus, ATCC29213, 18 h, 35 °C, read-out: minimal inhibitory concentrations (MIC)
# S. aureus NCTC 4163 [3] = experiment: disc diffusion method; type: cell-based, Staphylococcus aureus; details: 5 µg/9 mm disc
# [4] = system: S. epidermidis ATCC 12228; experiment: MIC, twofold serial agar dilution; type: cell-based; details: Staphylococcus epidermidis, ATCC12228, 18 h, 35 °C, read-out: minimal inhibitory concentrations (MIC)
# B. subtilis ATCC 6633 [5] = experiment: disc diffusion method; type: cell-based, Bacillus subtilis; details: 5 µg/9 mm disc
# M. luteus ATCC 9341 [6] = experiment: disc diffusion method; type: cell-based, Micrococcus luteus; details: 5 µg/9 mm disc
# [7] = target: S. aureus topoisomerase IV (Staphylococcus aureus, UniProt P0C1S7+P0C1U9); details: at 32 µg/mL
# M. luteus ATCC 9341 [8] = experiment: MIC, twofold serial agar dilution; type: cell-based; details: Micrococcus luteus, ATCC9341, 18 h, 35 °C, read-out: minimal inhibitory concentrations (MIC)
# [9] = system: methicillin-resistant strains of S. aureus (MRSA); experiment: MIC against hospital strains; details: Staphylococcus aureus
# S. aureus NCTC 4163 [10] = experiment: MIC, twofold serial agar dilution; type: cell-based; details: Staphylococcus aureus, NCTC4163, 18 h, 35 °C, read-out: minimal inhibitory concentrations (MIC)
# S. aureus ATCC 25923 [11] = experiment: disc diffusion method; type: cell-based, Staphylococcus aureus; details: 5 µg/9 mm disc
# [12] = system: hospital methicillin-susceptible strains of S. aureus (MSSA); experiment: MIC against hospital strains; details: Staphylococcus aureus
# M. luteus ATCC 10240 [13] = experiment: MIC, twofold serial agar dilution; type: cell-based; details: Micrococcus luteus, ATCC10240, 18 h, 35 °C, read-out: minimal inhibitory concentrations (MIC)
# S. aureus ATCC 25923 [14] = experiment: MIC, twofold serial agar dilution; type: cell-based; details: Staphylococcus aureus, ATCC25923, 18 h, 35 °C, read-out: minimal inhibitory concentrations (MIC)
# [15] = system: S. epidermidis ATCC 12228; experiment: disc diffusion method; type: cell-based, Staphylococcus epidermidis; details: 5 µg/9 mm disc
# S. aureus ATCC 29213 [16] = experiment: disc diffusion method; type: cell-based, Staphylococcus aureus; details: 5 µg/9 mm disc
# S. aureus ATCC 6538 [17] = experiment: MIC, twofold serial agar dilution; type: cell-based; details: Staphylococcus aureus, ATCC6538, 18 h, 35 °C, read-out: minimal inhibitory concentrations (MIC)
# B. subtilis ATCC 6633 [18] = experiment: MIC, twofold serial agar dilution; type: cell-based; details: Bacillus subtilis, ATCC6633, 18 h, 35 °C, read-out: minimal inhibitory concentrations (MIC)
# B. cereus ATCC 11778 [19] = experiment: MIC, twofold serial agar dilution; type: cell-based; details: Bacillus cereus, ATCC11778, 18 h, 35 °C, read-out: minimal inhibitory concentrations (MIC)
# S. aureus ATCC 6538 [20] = experiment: disc diffusion method; type: cell-based, Staphylococcus aureus; details: 5 µg/9 mm disc
# B. cereus ATCC 11778 [21] = experiment: disc diffusion method; type: cell-based, Bacillus cereus; details: 5 µg/9 mm disc
# BVDV = experiment: microbe, parasite or virus in culture; type: cell-based, bovine viral diarrhoea virus; details: for EC50: Bovine viral diarrhea virus isolates and strains, MDBK, in Bos taurus, read-out: BVDV EC50
# in vitro [22] = details: human
# in vitro [23] = details: cattle (Bos taurus)
# RSV = experiment: microbe, parasite or virus in culture; type: cell-based, human respiratory syncytial virus; details: human respiratory syncytial virus, Vero 76, read-out: RSV EC50
# VSV = experiment: microbe, parasite or virus in culture; type: cell-based; details: Vesicular stomatitis virus, Vero 76, read-out: VSV EC50
# Reo-1 = experiment: microbe, parasite or virus in culture; type: cell-based, reovirus type-1; details: for EC50: Reovirus sp., BHK, read-out: Reo-1 EC50
# in vitro [24] = details: Syrian hamster (Mesocricetus auratus)
# Sb-1 = experiment: microbe, parasite or virus in culture; type: cell-based, poliovirus type-1; details: Enterovirus C, Vero 76, read-out: Sb-1 EC50
# BHK cells = details: Syrian hamster (Mesocricetus auratus)
# HIV-1 = experiment: microbe, parasite or virus in culture; details: Human immunodeficiency virus 1, MT4, read-out: HIV-1 EC50
# CV-B5 = experiment: microbe, parasite or virus in culture; type: cell-based, coxsackievirus B5; details: Enterovirus B, CVB5, Vero 76, read-out: CV-B5 EC50
# YFV = experiment: microbe, parasite or virus in culture; type: cell-based; details: Yellow fever virus, BHK, read-out: YFV EC50
# HSV-1 = experiment: microbe, parasite or virus in culture; type: cell-based, human herpes 1; details: Human alphaherpesvirus 1, Vero 76, read-out: HSV-1 EC50
# in vitro [25] = details: African green monkey (Cercopithecus aethiops)
# VV = experiment: microbe, parasite or virus in culture; type: cell-based; details: Orthopoxvirus vaccinia, Vero 76, read-out: VV EC50
# Sequence of S. aureus topoisomerase IV (P0C1U9 whole entry): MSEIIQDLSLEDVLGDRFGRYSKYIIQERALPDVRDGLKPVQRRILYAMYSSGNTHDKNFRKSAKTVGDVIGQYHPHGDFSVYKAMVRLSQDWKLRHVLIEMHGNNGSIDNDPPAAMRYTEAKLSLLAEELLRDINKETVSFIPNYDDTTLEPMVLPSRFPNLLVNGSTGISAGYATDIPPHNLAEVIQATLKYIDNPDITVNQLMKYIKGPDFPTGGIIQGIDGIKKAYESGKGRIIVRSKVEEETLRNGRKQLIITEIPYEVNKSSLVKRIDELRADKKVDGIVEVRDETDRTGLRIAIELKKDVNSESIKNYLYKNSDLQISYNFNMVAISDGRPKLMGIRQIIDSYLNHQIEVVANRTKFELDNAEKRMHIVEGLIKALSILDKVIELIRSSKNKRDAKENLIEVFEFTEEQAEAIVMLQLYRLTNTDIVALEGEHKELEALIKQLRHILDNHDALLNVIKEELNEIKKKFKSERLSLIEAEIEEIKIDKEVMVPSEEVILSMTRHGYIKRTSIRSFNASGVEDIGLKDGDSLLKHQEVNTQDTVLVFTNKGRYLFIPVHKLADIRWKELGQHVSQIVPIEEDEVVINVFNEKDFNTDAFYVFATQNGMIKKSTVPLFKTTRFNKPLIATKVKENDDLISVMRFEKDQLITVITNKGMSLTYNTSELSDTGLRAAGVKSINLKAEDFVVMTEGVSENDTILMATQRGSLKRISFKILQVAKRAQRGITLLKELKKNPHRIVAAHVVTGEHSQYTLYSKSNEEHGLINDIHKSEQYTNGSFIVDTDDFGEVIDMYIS
# Sequence of S. aureus topoisomerase IV (P0C1S7 whole entry): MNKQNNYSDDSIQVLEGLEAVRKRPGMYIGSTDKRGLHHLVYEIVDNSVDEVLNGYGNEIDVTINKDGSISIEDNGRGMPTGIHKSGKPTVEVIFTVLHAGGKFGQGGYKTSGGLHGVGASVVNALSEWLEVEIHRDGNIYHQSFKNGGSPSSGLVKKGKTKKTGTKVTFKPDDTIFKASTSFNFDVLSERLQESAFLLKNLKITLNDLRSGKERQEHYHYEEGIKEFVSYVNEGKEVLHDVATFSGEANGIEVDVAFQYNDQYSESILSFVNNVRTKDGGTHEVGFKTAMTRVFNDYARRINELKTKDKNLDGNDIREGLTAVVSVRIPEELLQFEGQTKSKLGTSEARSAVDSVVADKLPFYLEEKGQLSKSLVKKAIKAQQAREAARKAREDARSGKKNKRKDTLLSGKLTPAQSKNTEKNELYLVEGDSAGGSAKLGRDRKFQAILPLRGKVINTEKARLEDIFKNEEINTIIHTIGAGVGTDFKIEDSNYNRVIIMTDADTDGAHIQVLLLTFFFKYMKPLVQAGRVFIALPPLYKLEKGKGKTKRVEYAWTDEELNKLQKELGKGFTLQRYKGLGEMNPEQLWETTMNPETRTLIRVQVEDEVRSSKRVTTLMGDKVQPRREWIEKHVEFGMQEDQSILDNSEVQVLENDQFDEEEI
smiles,measurement,setting,value
"O=C(O)c1cn(C2CC2)c2cc(N3CCNCC3)c(F)cc2c1=O [Ciprofloxacin, reference compound]",MIC,S. epidermidis (MRSE),6.25 µg/mL
same,MIC,S. epidermidis (MRSE); hospital S. epidermidis MRSE strain 430/11,0.8 µg/mL
same,MIC,S. epidermidis (MRSE); hospital S. epidermidis MRSE strain 432/11,50 µg/mL
same,MIC,S. epidermidis (MRSE); hospital S. epidermidis MRSE strain 433/11,50 µg/mL
same,MIC,S. epidermidis (MRSE); hospital S. epidermidis MRSE strain 434/11,50 µg/mL
same,MIC,S. epidermidis (MRSE); hospital S. epidermidis MRSE strain 435/11,0.4 µg/mL
same,MIC,S. epidermidis (MRSE); hospital S. epidermidis MRSE strain 436/11,0.4 µg/mL
same,MIC,S. epidermidis (MRSE); hospital S. epidermidis MRSE strain 437/11,0.8 µg/mL
same,MIC,S. epidermidis (MRSE); hospital S. epidermidis MRSE strain 438/11,0.4 µg/mL
same,MIC,S. epidermidis (MRSE); hospital S. epidermidis MRSE strain 439/11,50 µg/mL
same,diameter of growth inhibitory zone (GIZ),M. luteus ATCC 10240 [1],25 mm
same,MIC,S. aureus ATCC 29213 [2],0.5 µg/mL
same,diameter of growth inhibitory zone (GIZ),S. aureus NCTC 4163 [3],26 mm
same,MIC,[4],0.25 µg/mL
same,diameter of growth inhibitory zone (GIZ),B. subtilis ATCC 6633 [5],38 mm
same,diameter of growth inhibitory zone (GIZ),M. luteus ATCC 9341 [6],26 mm
same,inhibition of decatenation activity of S. aureus topoisomerase IV,[7],almost completely inhibited
same,MIC,M. luteus ATCC 9341 [8],0.25 µg/mL
same,MIC,[9]; hospital S. aureus MRSA strain 389/10,25 µg/mL
same,MIC,[9]; hospital S. aureus MRSA strain 390/10,100 µg/mL
same,MIC,[9]; hospital S. aureus MRSA strain 391/10,100 µg/mL
same,MIC,[9]; hospital S. aureus MRSA strain 392/10,100 µg/mL
same,MIC,[9]; hospital S. aureus MRSA strain 393/10,50 µg/mL
same,MIC,[9]; hospital S. aureus MRSA strain 394/10,25 µg/mL
same,MIC,[9]; hospital S. aureus MRSA strain 399/10,200 µg/mL
same,MIC,[9]; hospital S. aureus MRSA strain 450/11,100 µg/mL
same,MIC,[9]; hospital S. aureus MRSA strain 451/11,100 µg/mL
same,MIC,[9]; hospital S. aureus MRSA strain 452/11,200 µg/mL
same,MIC,S. aureus NCTC 4163 [10],0.25 µg/mL
same,diameter of growth inhibitory zone (GIZ),S. aureus ATCC 25923 [11],26 mm
same,MIC,[12]; hospital S. aureus MSSA strain 440/11,0.4 µg/mL
same,MIC,[12]; hospital S. aureus MSSA strain 441/11,0.4 µg/mL
same,MIC,[12]; hospital S. aureus MSSA strain 442/11,0.4 µg/mL
same,MIC,[12]; hospital S. aureus MSSA strain 443/11,0.4 µg/mL
same,MIC,[12]; hospital S. aureus MSSA strain 444/11,0.8 µg/mL
same,MIC,[12]; hospital S. aureus MSSA strain 445/11,0.4 µg/mL
same,MIC,[12]; hospital S. aureus MSSA strain 446/11,0.4 µg/mL
same,MIC,[12]; hospital S. aureus MSSA strain 447/11,0.8 µg/mL
same,MIC,[12]; hospital S. aureus MSSA strain 448/11,0.8 µg/mL
same,MIC,[12]; hospital S. aureus MSSA strain 449/11,0.4 µg/mL
same,MIC,M. luteus ATCC 10240 [13],1 µg/mL
same,MIC,S. aureus ATCC 25923 [14],0.5 µg/mL
same,diameter of growth inhibitory zone (GIZ),[15],30 mm
same,diameter of growth inhibitory zone (GIZ),S. aureus ATCC 29213 [16],22 mm
same,MIC,S. aureus ATCC 6538 [17],0.25 µg/mL
same,MIC,B. subtilis ATCC 6633 [18],< 0.12 µg/mL
same,MIC,B. cereus ATCC 11778 [19],0.25 µg/mL
same,diameter of growth inhibitory zone (GIZ),S. aureus ATCC 6538 [20],28 mm
same,diameter of growth inhibitory zone (GIZ),B. cereus ATCC 11778 [21],26 mm
"C=CCNC(=S)NCCc1c[nH]c2ccccc12 [Compound 18, 1-(2-(1H-Indol-3-yl)ethyl)-3-allylthiourea]",EC50,BVDV,> 100 µM
same,CC50,in vitro [22],> 100 µM
same,CC50,in vitro [23],> 100 µM
same,EC50,RSV,> 100 µM
same,EC50,VSV,> 100 µM
same,activity against Reo-1 (in words),Reo-1,not particularly significant
same,EC50,Reo-1,61 µM
same,CC50,in vitro [24],> 100 µM
same,EC50,Sb-1,> 100 µM
same,CC50,BHK cells,> 100 µM
same,EC50,HIV-1,> 100 µM
same,EC50,CV-B5,> 100 µM
same,EC50,YFV,> 100 µM
same,EC50,HSV-1,> 100 µM
same,CC50,in vitro [25],> 100 µM
same,EC50,VV,> 100 µM
"CCOC(=O)NC(=S)NCCc1c[nH]c2ccccc12 [Compound 20, 1-(2-(1H-Indol-3-yl)ethyl)-3-ethoxycarbonylthiourea]",activity against BVDV (in words),BVDV,showed activity
same,EC50,BVDV,35 ± 2.8 µM
same,CC50,in vitro [22],> 100 µM
same,CC50,in vitro [23],> 100 µM
same,EC50,RSV,> 100 µM
same,EC50,VSV,> 100 µM
same,EC50,Reo-1,> 100 µM
same,CC50,in vitro [24],> 100 µM
same,EC50,Sb-1,> 100 µM
same,CC50,BHK cells,> 100 µM
same,EC50,HIV-1,> 100 µM
same,EC50,CV-B5,> 100 µM
same,EC50,YFV,> 100 µM
same,EC50,HSV-1,> 100 µM
same,cytotoxicity for MDBK cell lines (in words),MDBK cells,lack of cytotoxicity
same,CC50,in vitro [25],> 100 µM
same,EC50,VV,> 100 µM
